## COc1cc(Nc2c(C#N)cnc3cc(NCCCC4CCN(C)CC4)c(OC)cc23)c(Cl)cc1Cl [Example 28, 4-[(2,4-Dichloro-5-methoxyphenyl)amino]-6-methoxy-7-{[3-(1-methylpiperidin-4-yl)propyl]amino}quinoline-3-carbonitrile]
  melting point: 122 to 124 °C

## CCCCOc1cc2c(Nc3cc(OC)c(Cl)cc3Cl)c(C#N)cnc2cc1OCCOC [Example 24, 6-Butoxy-4-[(2,4-dichloro-5-methoxyphenyl)amino]-7-(2-methoxyethoxy)-3-quinolinecarbonitrile]
  melting point: 166 to 167 °C

## COc1cc(Nc2c(C#N)cnc3cc(NCCCN(C)C)c(OC)cc23)c(Cl)cc1Cl [Example 54, 4-[(2,4-Dichloro-5-methoxyphenyl)amino]-7-{[3-(dimethylamino)propyl]amino}-6-methoxyquinoline-3-carbonitrile]
  melting point: 165 to 167 °C

## COCCOc1cc2ncc(C#N)c(Nc3cc(OC)c(Cl)cc3Cl)c2cc1OCCN1CCOCC1 [Example 26, 4-[(2,4-Dichloro-5-methoxyphenyl)amino]-7-(2-methoxyethoxy)-6-(2-morpholin-4-ylethoxy)3-quinolinecarbonitrile]
  melting point: 158 to 159 °C

## COc1cc(Nc2c(C#N)cnc3cc(OCc4cccs4)c(OC)cc23)c(Cl)cc1Cl [Example 5, 4-[(2,4-Dichloro-5-methoxyphenyl)amino]-6-methoxy-7-(2-thienylmethoxy)-3-quinolinecarbonitrile]
  melting point: 194 to 196 °C

## COc1cc2c(Nc3ccc(Oc4cccnc4)cc3)c(C#N)cnc2cc1OCC1CCN(C)CC1 [Example 57, 6-Methoxy-7-(1-methyl-piperidin-4-ylmethoxy)-4-{[4-(pyridin-3-yloxy)-phenyl]amino}quinoline-3-carbonitrile]
  melting point: 182 to 184 °C

## COCCOc1cc2c(Nc3cc(OC)c(Cl)cc3Cl)c(C#N)cnc2cc1OCC1CCN(C)CC1 [Example 22, 4-[(2,4-Dichloro-5-methoxyphenyl)amino]-6-[2-methoxyethoxy]-7-[(1-methylpiperidine-4-yl)methoxy]3-quinolinecarbonitrile]
  melting point: 153 to 155 °C

## CCN1CCC(COc2cc3ncc(C#N)c(Nc4cc(OC)c(Cl)cc4Cl)c3cc2OC)CC1 [Example 51, 4-[(2,4-Dichloro-5-methoxyphenyl)amino]-7-[(1-ethylpiperidine-4-yl)methoxy]-6-methoxyquinoline-3-carbonitrile]
  melting point: 192 to 195 °C

## COc1cc(Nc2c(C#N)cnc3cc(N(C)CCCN(C)C)c(OC)cc23)c(Cl)cc1Cl [Example 55, 4-[(2,4-Dichloro-5-methoxyphenyl)amino]-7-{[3-(dimethylamino)propyl](methyl)amino]-6-methoxyquinoline-3-carbonitrile]
  melting point: 116 to 117 °C

## CCN1CCN(CCCOc2cc3ncc(C#N)c(Nc4ccc(Sc5nccn5C)c(Cl)c4)c3cc2OCCOC)CC1 [Example 21, 4-({3-Chloro-4-[(1-methyl-1H-imidazol-2-yl)sulfanyl]phenyl}amino)-7-[3-(4-ethyl-1-piperazinyl)propoxy]-6-(2-methoxyethoxy)-3-quinolinecarbonitrile]
  melting point: 188 to 190 °C

## COc1cc(Nc2c(C#N)cnc3cc(OCC4CCCCO4)c(OC)cc23)c(Cl)cc1Cl (centres unmarked) [Example 25, 4-[(2,4-Dichloro-5-methoxyphenyl)amino]-6-methoxy-7-(tetrahydro-2H-pyran-2-ylmethoxy)3-quinolinecarbonitrile]
  melting point: 193 to 196 °C

## COCCOc1cc2ncc(C#N)c(Nc3cc(OC)ccc3Cl)c2cc1OC [Example 38, 4-[(2-Chloro-5-methoxyphenyl)amino]-6-methoxy-7-(2-methoxyethoxy)quinoline-3-carbonitrile]
  melting point: 179 to 181 °C

## COCCOc1cc2ncc(C#N)c(Nc3cc(OC)c(OC)c(OC)c3)c2cc1OC [Example 17, 6-Methoxy-7-[2-methoxyethoxy]-4-[(3,4,5-trimethoxyphenyl)amino]-3-quinolinecarbonitrile]
  melting point: 188 to 190 °C

## COc1ccc(C)c(Nc2c(C#N)cnc3cc(OCCCC4CCN(C)CC4)c(OC)cc23)c1 [Example 48, 6-Methoxy-4-[(5-methoxy-2-methylphenyl)amino]-7-[3-(1-methylpiperidine-4-yl)propoxy]quinoline-3-carbonitrile]
  melting point: 163 to 166 °C

## CCCCNc1c(C#N)cnc2cc(OCCOC)c(OC)cc12 [Example 10, 4-Butylamino-6-methoxy-7-(2-methoxyethoxy)-3-quinolinecarbonitrile]
  melting point: 99 to 102 °C

## CCOc1cc2c(Nc3cc(OC)c(Cl)cc3Cl)c(C#N)cnc2cc1OCCOC [Example 23, 4-[(2,4-Dichloro-5-methoxyphenyl)amino]-6-ethoxy-7-(2-methoxyethoxy)3-quinolinecarbonitrile]
  melting point: 215 to 217 °C

## COc1cc(Nc2c(C#N)cnc3cc(OCCCN4CCS(=O)(=O)CC4)c(OC)cc23)c(Cl)cc1Cl [Example 3, 4-[(2,4-Dichloro-5-methoxyphenyl)amino]-7-[3-(1,1-dioxido-4-thiomorpholinyl)propoxy]-6-methoxy-3-quinolinecarbonitrile]
  melting point: 118 to 120 °C

## COCCOc1cc2c(Nc3ccc(Sc4nccn4C)c(Cl)c3)c(C#N)cnc2cc1OCCCN(C)C [Example 20, 4-({3-Chloro-4-[(1-methyl-1H-imidazol-2-yl)sulfanyl]phenyl}amino)-7-[3-(dimethylamino)propoxy]-6-(2-methoxyethoxy)-3-quinolinecarbonitrile]
  melting point: 194 to 203 °C

## COCCOc1ccc2c(Nc3ccc(Cl)cc3Cl)c(C#N)cnc2c1 [Example 34, 4-[(2,4-Dichlorophenyl)amino]-7-(2-methoxyethoxy)-3-quinolinecarbonitrile]
  melting point: 144 to 145 °C

## COc1cc2c(Nc3ccc(C)cc3C)c(C#N)cnc2cc1OCCCC1CCN(C)CC1 [Example 49, 4-[(2,4-Dimethylphenyl)amino]-6-methoxy-7-[3(1-methylpiperidine-4-yl)propoxy]quinoline-3-carbonitrile]
  melting point: 159 to 162 °C

## CC#CCOc1cc2ncc(C#N)c(Nc3cc(OC)c(Cl)cc3Cl)c2cc1OC [Example 1, 7-(2-Butynyloxy)-4-[(2,4-dichloro-5-methoxyphenyl)amino]-6-methoxy-3-quinolinecarbonitrile]
  melting point: 193 to 197 °C

## COCCNc1cc2ncc(C#N)c(Nc3cc(OC)c(Cl)cc3Cl)c2cc1OC [Example 56, 4-[(2,4-Dichloro-5-methoxyphenyl)amino]-6-methoxy-7-[(2-methoxyethyl)amino]quinoline-3-carbonitrile]
  melting point: 165 to 166 °C

## COc1cc2c(Nc3ccc(Sc4nccn4C)c(Cl)c3)c(C#N)cnc2cc1N(C)CCCN(C)C [Example 30, 4-[3-Chloro-4-(1-methyl-1H-imidazol-2-ylsulfanyl)-phenylamino]-7-{[3-(dimethylamino)propyl]-methylamino}-6-methoxyquinoline-3-carbonitrile]
  melting point: 196 to 201 °C

## COc1cc(Nc2c(C#N)cnc3cc(OCC(C)(C)CN(C)C)c(OC)cc23)c(Cl)cc1Cl [Example 2, 4-[(2,4-Dichloro-5-methoxyphenyl)amino]-7-(3-dimethylamino-2,2-dimethylpropoxy)-6-methoxy-3-quinolinecarbonitrile]
  melting point: 178 to 180 °C

## COCCOc1ccc2c(Nc3cc(OC)c(Cl)cc3Cl)c(C#N)cnc2c1 [Example 33, 4-[(2,4-Dichloro-5-methoxyphenyl)amino]-7-(2-methoxyethoxy)-3-quinolinecarbonitrile]
  melting point: 182 to 183 °C

## COCCOc1cc2ncc(C#N)c(NC3CCCC3)c2cc1OC [Example 9, 4-Cyclopentylamino-6-methoxy-7-(2-methoxyethoxy)-3-quinolinecarbonitrile]
  melting point: 87 to 90 °C

## COc1cc2c(Nc3ccc(Sc4nccn4C)c(Cl)c3)c(C#N)cnc2cc1N1CCN(C)CC1 [Example 27, 4-[3-Chloro-4-(1-methyl-1H-imidazol-2-ylsulfanyl)-phenylamino]-6-methoxy-7-(4-methylpiperazin-1-yl)-quinoline-3-carbonitrile]
  melting point: 270 to 272 °C

## COCCOc1cc2ncc(C#N)c(Nc3ccc(C)cc3C)c2cc1OC [Example 40, 4-[(2,4-Dimethylphenyl)amino]-6-methoxy-7-(2-methoxyethoxy)quinoline-3-carbonitrile]
  melting point: 107 to 109 °C

## COc1cc(Nc2c(C#N)cnc3cc(Sc4ccccc4)c(OC)cc23)c(Cl)cc1Cl [Example 8, 4-[(2,4-Dichloro-5-methoxyphenyl)amino]-6-methoxy-7-phenylsulfanyl-3-quinolinecarbonitrile]
  melting point: 220 to 222 °C

## COc1cc(Nc2c(C#N)cnc3cc(SCc4ccccc4)c(OC)cc23)c(Cl)cc1Cl [Example 11, 7-Benzylthio-4-[(2,4-dichloro-5-methoxyphenyl)amino]-6-methoxy-3-quinolinecarbonitrile]
  melting point: 123 to 125 °C

## COc1cc2c(Nc3ccc(Sc4nccn4C)c(Cl)c3)c(C#N)cnc2cc1NCCCN(C)C [Example 29, 4-[3-Chloro-4-(1-methyl-1H-imidazol-2-ylsulfanyl)-phenylamino]-7-{[3-(dimethyl)aminopropyl]amino}-6-methoxyquinoline-3-carbonitrile]
  melting point: 198 to 200 °C

## COc1cc(Nc2c(C#N)cnc3cc(Oc4ccncc4)c(OC)cc23)c(Cl)cc1Cl [Example 12, 4-[(2,4-Dichloro-5-methoxyphenyl)amino]-6-methoxy-7-(pyridin-4-yloxy)-3-quinolinecarbonitrile]
  melting point: 267 to 269 °C

## COCCOc1cc2ncc(C#N)c(Nc3cc(OC)c(C)cc3C)c2cc1OC [Example 37, 4-[(2,4-Dimethyl-5-methoxyphenyl)amino]-6-methoxy-7-(2-methoxyethoxy)quinoline-3-carbonitrile]
  melting point: 143 to 145 °C

## COCCOc1cc2ncc(C#N)c(Nc3cc(OC)c(Cl)cc3Cl)c2cc1OC [Example 14, 4-[(2,4-Dichloro-5-methoxyphenyl)amino]-6-methoxy-7-[2-methoxyethoxy]-3-quinolinecarbonitrile]
  melting point: 210 to 212 °C

## COc1cc(Nc2c(C#N)cnc3cc(OCc4ccccc4)c(OC)cc23)c(Cl)cc1Cl [Example 6, 7-Benzyloxy-4-[(2,4-dichloro-5-methoxyphenyl)amino]-6-methoxy-3-quinolinecarbonitrile]
  melting point: 198 to 200 °C
